In patent US8299048B2, “Hexahydrocyclopentyl[f]indazole sulfonamides and derivatives thereof as selective glucocorticoid receptor modulators” (Merck Sharp & Dohme Corp., priority 2008, dated 2012):

Biological target: T1, human GR (Homo sapiens, UniProt P04150)
T1 sequence (P04150 1-777): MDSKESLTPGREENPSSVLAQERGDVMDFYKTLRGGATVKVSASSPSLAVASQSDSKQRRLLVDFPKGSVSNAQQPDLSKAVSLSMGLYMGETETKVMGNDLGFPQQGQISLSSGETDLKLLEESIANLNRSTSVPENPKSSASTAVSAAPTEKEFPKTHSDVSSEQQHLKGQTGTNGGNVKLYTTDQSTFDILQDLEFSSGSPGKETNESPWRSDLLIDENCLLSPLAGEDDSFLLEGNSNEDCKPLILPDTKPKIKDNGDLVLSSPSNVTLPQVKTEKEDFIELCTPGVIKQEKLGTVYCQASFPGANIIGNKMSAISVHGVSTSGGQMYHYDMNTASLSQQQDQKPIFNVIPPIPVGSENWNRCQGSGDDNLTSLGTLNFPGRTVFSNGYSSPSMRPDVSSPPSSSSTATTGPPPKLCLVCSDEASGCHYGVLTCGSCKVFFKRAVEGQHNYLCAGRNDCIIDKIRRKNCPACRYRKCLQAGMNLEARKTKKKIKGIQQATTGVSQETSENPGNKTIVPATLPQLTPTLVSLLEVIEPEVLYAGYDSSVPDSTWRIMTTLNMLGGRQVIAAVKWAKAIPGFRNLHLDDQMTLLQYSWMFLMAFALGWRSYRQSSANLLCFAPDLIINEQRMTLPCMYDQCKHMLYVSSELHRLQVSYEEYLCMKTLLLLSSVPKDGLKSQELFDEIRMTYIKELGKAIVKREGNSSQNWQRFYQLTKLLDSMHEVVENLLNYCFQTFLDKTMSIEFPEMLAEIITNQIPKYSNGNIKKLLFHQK
Assay: Trans-Activation Modulation of Glucocorticoid Receptor (GRAMMER), MMTV-LUC reporter, agonist mode
Assay type: cell-based
Parameters: endogenous in cells
Conditions: for Emax: A549, A549 cells, maximum activity, read-out: Transactivation A549 Cells GRAMMER Emax; for EC50: A549 cells, inflection point, read-out: Transactivation A549 Cells GRAMMER IP
Summary of the method: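 Readout is luciferase from a modified MMTV LTR promoter after 24 h compound exposure alongside 10 nM dexamethasone (100% activity reference), DMSO ≤1%.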

Compound: C[C@]12Cc3cnn(-c4ccc(F)cc4)c3C=C1CC[C@@H]2CN(CCO)S(=O)(=O)c1ccc(C#N)cc1Cl [Example 60, 2-chloro-4-cyano-N-{[(4αR,5S)-1-(4-fluorophenyl)-4α-methyl-1,4,4α,5,6,7-hexahydrocyclopenta[f]indazol-5-yl]methyl}-N-(2-hydroxyethyl)benezenesulfonamide]
- Emax: 23%
- EC50: 777 nM

Compound: C[C@]12Cc3cnn(-c4ccc(F)cc4)c3C=C1CC[C@@H]2CN(CCO)S(=O)(=O)c1cccc(Cl)c1Cl [Example 61, 2,3-dichloro-N-{[(4αR,5S)-1-(4-fluorophenyl)-4α-methyl-1,4,4α,5,6,7-hexahydrocyclopenta[f]indazol-5-yl]methyl}-N-(2-hydroxyethyl)benezenesulfonamide]
- Emax: 5.8%
- EC50: 417 nM

Compound: C[C@]12Cc3cnn(-c4ccc(F)cc4)c3C=C1CC[C@@H]2CNS(=O)(=O)Cc1cccnc1 [Example 169, N-{[(4αR,5S)-1-(4-fluorophenyl)-4α-methyl-1,4,4α,5,6,7-hexahydrocyclopenta[f]indazol-5-yl]methyl}-1-pyridin-3-ylmethanesulfonamide]
- Emax: 12.4%
- EC50: 1660 nM

Compound: Cc1noc(C)c1S(=O)(=O)N(CC1CCCO1)C[C@H]1CCC2=Cc3c(cnn3-c3ccc(F)cc3)C[C@@]21C (stereo partly drawn) [Example 170, N-{[(4αR,5S)-1-(4-fluorophenyl)-4α-methyl-1,4,4α,5,6,7-hexahydrocyclopenta[f]indazol-5-yl]methyl}-3,5-dimethyl-N-(tetrahydrofuran-2-ylmethyl)isoxazole-4-sulfonamide]
- Emax: 76%
- EC50: 432 nM

Compound: CCS(=O)(=O)N(CCOC)C[C@H]1CCC2=Cc3c(cnn3-c3ccc(F)cc3)C[C@@]21C [Example 171, N-{[(4αR,5S)-1-(4-fluorophenyl)-4α-methyl-1,4,4α,5,6,7-hexahydrocyclopenta[f]indazol-5-yl]methyl}-N-(2-methoxyethyl)ethanesulfonamide]
- Emax: 71.3%
- EC50: 287 nM

Compound: COCCN(C[C@H]1CCC2=Cc3c(cnn3-c3ccc(F)cc3)C[C@@]21C)S(=O)(=O)c1cn(C)nc1C(F)(F)F [Example 172, N-{[(4αR,5S)-1-(4-fluorophenyl)-4α-methyl-1,4,4α,5,6,7-hexahydrocyclopenta[f]indazol-5-yl]methyl}-N-(2-methoxyethyl)-1-methyl-3-(trifluoromethyl)-1H-pyrazole-4-sulfonamide]
- Emax: 10.7%
- EC50: 398 nM

Compound: COCCN(C[C@H]1CCC2=Cc3c(cnn3-c3ccc(F)cc3)C[C@@]21C)S(=O)(=O)c1c(C)noc1C [Example 173, N-{[(4αR,5S)-1-(4-fluorophenyl)-4α-methyl-1,4,4α,5,6,7-hexahydrocyclopenta[f]indazol-5-yl]methyl}-N-(2-methoxyethyl)-3,5-dimethylisoxazole-4-sulfonamide]
- Emax: 70.4%
- EC50: 364 nM

Compound: CCS(=O)(=O)N(CC1CCCO1)C[C@H]1CCC2=Cc3c(cnn3-c3ccc(F)cc3)C[C@@]21C (stereo partly drawn) [Example 174, N-{[(4αR,5S)-1-(4-fluorophenyl)-4α-methyl-1,4,4α,5,6,7-hexahydrocyclopenta[f]indazol-5-yl]methyl}-N-(tetrahydrofuran-2-ylmethyl)ethanesulfonamide]
- Emax: 81.1%
- EC50: 527 nM

Compound: Cn1cc(S(=O)(=O)N(CC2CCCO2)C[C@H]2CCC3=Cc4c(cnn4-c4ccc(F)cc4)C[C@@]32C)c(C(F)(F)F)n1 (stereo partly drawn) [Example 175, N-{[(4αR,5S)-1-(4-fluorophenyl)-4α-methyl-1,4,4α,5,6,7-hexahydrocyclopenta[f]indazol-5-yl]methyl}-1-methyl-N-(tetrahydrofuran-2-ylmethyl)-3-(trifluoromethyl)-1H-pyrazole-4-sulfonamide]
- Emax: 22.7%
- EC50: 381 nM

Compound: Cc1noc(C)c1S(=O)(=O)N(C)C[C@H]1CCC2=Cc3c(cnn3-c3ccc(F)cc3)C[C@@]21C [Example 176, N-{[(4αR,5S)-1-(4-fluorophenyl)-4α-methyl-1,4,4α,5,6,7-hexahydrocyclopenta[f]indazol-5-yl]methyl}-N,3,5-trimethylisoxazole-4-sulfonamide]
- Emax: 56.9%
- EC50: 246 nM

Compound: CN(C[C@H]1CCC2=Cc3c(cnn3-c3ccc(F)cc3)C[C@@]21C)S(=O)(=O)CC(F)(F)F [Example 177, 2,2,2-trifluoro-N-{[(4αR,5S)-1-(4-fluorophenyl)-4α-methyl-1,4,4α,5,6,7-hexahydrocyclopenta[f]indazol-5-yl]methyl}-N-methylethanesulfonamide]
- Emax: 67.3%
- EC50: 169 nM

Compound: CCN(C[C@H]1CCC2=Cc3c(cnn3-c3ccc(F)cc3)C[C@@]21C)S(=O)(=O)c1c(C)noc1C [Example 178, N-ethyl-N-{[(4αR,5S)-1-(4-fluorophenyl)-4α-methyl-1,4,4α,5,6,7-hexahydrocyclopenta[f]indazol-5-yl]methyl}-3,5-dimethylisoxazole-4-sulfonamide]
- Emax: 55%
- EC50: 110 nM

Compound: CCN(C[C@H]1CCC2=Cc3c(cnn3-c3ccc(F)cc3)C[C@@]21C)S(=O)(=O)CC(F)(F)F [Example 179, N-ethyl-2,2,2-trifluoro-N-{[(4αR,5S)-1-(4-fluorophenyl)-4α-methyl-1,4,4α,5,6,7-hexahydrocyclopenta[f]indazol-5-yl]methyl}ethanesulfonamide]
- Emax: 65.4%
- EC50: 277 nM

Compound: COC(=O)c1ccccc1CS(=O)(=O)N(C[C@H]1CCC2=Cc3c(cnn3-c3ccc(F)cc3)C[C@@]21C)C[C@@H](C)O [Example 180, methyl 2-[({{[(4αR,5S)-1-(4-fluorophenyl)-4α-methyl-1,4,4α,5,6,7-hexahydrocyclopenta[f]indazol-5-yl]methyl}[(2R)-2-hydroxypropyl]amino}sulfonyl)methyl]benzoatee]
- Emax: 38.1%
- EC50: 247 nM

Compound: COC(=O)c1ccccc1CS(=O)(=O)N(C[C@H]1CCC2=Cc3c(cnn3-c3ccc(F)cc3)C[C@@]21C)C[C@H](C)O [Example 181, methyl 2-[({{[(4αR,5S)-1-(4-fluorophenyl)-4α-methyl-1,4,4α,5,6,7-hexahydrocyclopenta[f]indazol-5-yl]methyl}[(2S)-2-hydroxypropyl]amino}sulfonyl)methyl]benzoate]
- Emax: 54.6%
- EC50: 364 nM

Compound: C[C@@H](O)CN(C[C@H]1CCC2=Cc3c(cnn3-c3ccc(F)cc3)C[C@@]21C)S(=O)(=O)Cc1ccccc1C(=O)O [Example 182, 2-[({{[(4αR,5S)-1-(4-fluorophenyl)-4α-methyl-1,4,4α,5,6,7-hexahydrocyclopenta[f]indazol-5-yl]methyl}[(2R)-2-hydroxypropyl]amino}sulfonyl)methyl]benzoic acid]
- Emax: 8%
- EC50: 4760 nM

Compound: C[C@H](O)CN(C[C@H]1CCC2=Cc3c(cnn3-c3ccc(F)cc3)C[C@@]21C)S(=O)(=O)Cc1ccccc1C(=O)O [Example 183, 2-[({{[(4αR,5S)-1-(4-fluorophenyl)-4α-methyl-1,4,4α,5,6,7-hexahydrocyclopenta[f]indazol-5-yl]methyl}[(2S)-2-hydroxypropyl]amino}sulfonyl)methyl]benzoic acid]
- Emax: 15%
- EC50: 4500 nM

Compound: C[C@@H](O)CN(C[C@H]1CCC2=Cc3c(cnn3-c3ccc(F)cc3)C[C@@]21C)S(=O)(=O)Cc1ccccc1C(N)=O [Example 184, 2-[({{[(4αR,5S)-1-(4-fluorophenyl)-4α-methyl-1,4,4α,5,6,7-hexahydrocyclopenta[f]indazol-5-yl]methyl}[(2R)-2-hydroxypropyl]amino}sulfonyl)methyl]benzamide]
- Emax: 21.6%
- EC50: 422 nM

Compound: C[C@H](O)CN(C[C@H]1CCC2=Cc3c(cnn3-c3ccc(F)cc3)C[C@@]21C)S(=O)(=O)Cc1ccccc1C(N)=O [Example 185, 2-[({{[(4αR,5S)-1-(4-fluorophenyl)-4α-methyl-1,4,4α,5,6,7-hexahydrocyclopenta[f]indazol-5-yl]methyl}[(2S)-2-hydroxypropyl]amino}sulfonyl)methyl]benzamide]
- Emax: 19.9%
- EC50: 250 nM

Compound: COC(=O)c1ccccc1S(=O)(=O)N(C[C@H]1CCC2=Cc3c(cnn3-c3ccc(F)cc3)C[C@@]21C)C[C@@H](C)O [Example 186, methyl 2-({{[(4αR,5S)-1-(4-fluorophenyl)-4α-methyl-1,4,4α,5,6,7-hexahydrocyclopenta[f]indazol-5-yl]methyl}[(2R)-2-hydroxypropyl]amino}sulfonyl)benzoate]
- Emax: 35.8%
- EC50: 509 nM

Compound: COC(=O)c1ccccc1S(=O)(=O)N(C[C@H]1CCC2=Cc3c(cnn3-c3ccc(F)cc3)C[C@@]21C)C[C@H](C)O [Example 187, methyl 2-({{[(4αR,5S)-1-(4-fluorophenyl)-4α-methyl-1,4,4α,5,6,7-hexahydrocyclopenta[f]indazol-5-yl]methyl}[(2S)-2-hydroxypropyl]amino}sulfonyl)benzoate]
- Emax: 35.8%
- EC50: 357 nM
